In patent publication US9708334B2, “Substituted 2,4,5,6-tetrahydropyrrolo[3,4-c]pyrazole and 4,5,6,7-tetrahydro-2H-pyrazolo[4,3-c]pyridine compounds as GlyT1 inhibitors” (DART NEUROSCIENCE (CAYMAN) LTD., priority 2014, dated 2017):

biological target: T1, GlyT1 (Homo sapiens, UniProt P48067); test: Glycine Transporter 1 (GlyT1) uptake assay, scintillation proximity assay of [14C]-glycine uptake; type: cell-based; conditions: SPA, four parameter logistic fit, read-out: GlyT1 (pIC50) (converted)
T1 construct: expressed in transfected cells
T1 sequence (P48067 1-706): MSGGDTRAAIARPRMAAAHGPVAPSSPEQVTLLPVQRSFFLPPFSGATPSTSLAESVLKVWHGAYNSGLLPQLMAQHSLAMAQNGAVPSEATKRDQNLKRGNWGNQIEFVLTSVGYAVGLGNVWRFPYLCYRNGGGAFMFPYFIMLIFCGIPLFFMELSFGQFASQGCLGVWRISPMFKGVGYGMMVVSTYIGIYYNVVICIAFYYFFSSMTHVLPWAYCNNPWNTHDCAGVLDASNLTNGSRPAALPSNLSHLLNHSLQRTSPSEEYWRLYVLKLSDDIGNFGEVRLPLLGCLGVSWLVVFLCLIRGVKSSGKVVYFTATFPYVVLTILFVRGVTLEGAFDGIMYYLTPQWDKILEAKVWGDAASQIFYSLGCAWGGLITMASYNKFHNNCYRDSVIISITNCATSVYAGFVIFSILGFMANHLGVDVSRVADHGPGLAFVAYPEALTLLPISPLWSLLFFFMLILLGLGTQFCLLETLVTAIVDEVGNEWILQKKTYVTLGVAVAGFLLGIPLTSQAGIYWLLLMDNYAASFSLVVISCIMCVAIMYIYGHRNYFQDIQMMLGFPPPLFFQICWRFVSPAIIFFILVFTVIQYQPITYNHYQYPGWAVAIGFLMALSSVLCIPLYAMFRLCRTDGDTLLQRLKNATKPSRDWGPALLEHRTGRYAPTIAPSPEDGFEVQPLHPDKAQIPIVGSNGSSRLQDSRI
In short: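 [14C]-glycine uptake read by scintillation proximity on a plate counter. IC50 from four-parameter logistic fit of dose-response data.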

IC50 [nM] | Structure (SMILES)
< 100 | CC(C)(C)COc1ccc(S(C)(=O)=O)cc1C(=O)N1Cc2cn(-c3ccc(F)cc3)nc2C1 [Example 341, 5-[2-(2 2-Dimethylpropoxy)-5-methanesulfonylbenzoyl]-2-(4-fluorophenyl)-2H 4H 5H 6H-pyrrolo[3,4-c]pyrazole]
100 to 1000 | C[C@H](Oc1ccc(C#N)cc1C(=O)N1Cc2cn(-c3ccc(F)cn3)nc2C1)C(F)(F)F [Example 342, 3-[2-(5-Fluoropyridin-2-yl)-2H 4H 5H 6H-pyrrolo[3,4-c]pyrazole-5-carbonyl]-4-{[(2S)-1 1 1-trifluoropropan-2-yl]oxy}benzonitrile]
< 100 | C[C@H](Oc1ccc(C#N)cc1C(=O)N1Cc2cn(-c3cncc(F)c3)nc2C1)C(F)(F)F [Example 343]
100 to 1000 | Cc1cccc(-n2cc3c(n2)CN(C(=O)c2cc(C#N)ccc2O[C@@H](C)C(F)(F)F)C3)n1 [Example 344, 3-[2-(6-Methylpyridin-2-yl)-2H 4H 5H 6H-pyrrolo[3,4-c]pyrazole-5-carbonyl]-4-{[(2S)-1 1 1-trifluoropropan-2-yl]oxy}benzonitrile]
100 to 1000 | Cc1nc(-n2cc3c(n2)CN(C(=O)c2cc(C#N)ccc2O[C@@H](C)C(F)(F)F)C3)ccc1F [Example 345, 3-[2-(5-Fluoro-6-methylpyridin-2-yl)-2H 4H 5H 6H-pyrrolo[3,4-c]pyrazole-5-carbonyl]-4-{[(2S)-1 1 1-trifluoropropan-2-yl]oxy}benzonitrile]
100 to 1000 | Cc1cc(F)cnc1-n1cc2c(n1)CN(C(=O)c1cc(C#N)ccc1O[C@@H](C)C(F)(F)F)C2 [Example 346, 3-[2-(5-Fluoro-3-methylpyridin-2-yl)-2H 4H 5H 6H-pyrrolo[3,4-c]pyrazole-5-carbonyl]-4-{[(2S)-1 1 1-trifluoropropan-2-yl]oxy}benzonitrile]
100 to 1000 | Cc1ccnc(-n2cc3c(n2)CN(C(=O)c2cc(C#N)ccc2O[C@@H](C)C(F)(F)F)C3)c1 [Example 347, 3-[2-(4-Methylpyridin-2-yl)-2H 4H 5H 6H-pyrrolo[3,4-c]pyrazole-5-carbonyl]-4-{[(2S)-1 1 1-trifluoropropan-2-yl]oxy}benzonitrile]
100 to 1000 | Cc1cc(-n2cc3c(n2)CN(C(=O)c2cc(C#N)ccc2O[C@@H](C)C(F)(F)F)C3)ncc1F [Example 348]
100 to 1000 | C[C@H](Oc1ccc(C#N)cc1C(=O)N1Cc2cn(-c3ccccn3)nc2C1)C(F)(F)F [Example 349, 3-[2-(Pyridin-2-yl)-2H 4H 5H 6H-pyrrolo[3,4-c]pyrazole-5-carbonyl]-4-{[(2 S)-1 1 1-trifluoropropan-2-yl]oxy}benzonitrile]
< 100 | CS(=O)(=O)c1ccc(C2CCCC2)c(C(=O)N2Cc3cn(-c4ccc(F)cc4)nc3C2)c1 [Example 350, 5-(2-Cyclopentyl-5-methanesulfonylbenzoyl)-2-(4-fluorophenyl)-2H 4H 5H 6H-pyrrolo[3,4-c]pyrazole]
100 to 1000 | Cc1ncc(-n2cc3c(n2)CN(C(=O)c2cc(C#N)ccc2O[C@@H](C)C(F)(F)F)C3)cc1F [Example 351, 3-[2-(5-Fluoro-6-methylpyridin-3-yl)-2H 4H 5H 6H-pyrrolo[3,4-c]pyrazole-5-carbonyl]-4-{[(2 S)-1 1 1-trifluoropropan-2-yl]oxy}benzonitrile]
100 to 1000 | Cc1c(F)cncc1-n1cc2c(n1)CN(C(=O)c1cc(C#N)ccc1O[C@@H](C)C(F)(F)F)C2 [Example 352, 3-[2-(5-Fluoro-4-methylpyridin-3-yl)-2H 4H 5H 6H-pyrrolo[3,4-c]pyrazole-5-carbonyl]-4-{[(2 S)-1 1 1-trifluoropropan-2-yl]oxy}benzonitrile]
< 100 | Cc1cc(-n2cc3c(n2)CN(C(=O)c2cc(C#N)ccc2O[C@@H](C)C(F)(F)F)C3)ccn1 [Example 353, 3-[2-(2-Methylpyridin-4-yl)-2H 4H 5H 6H-pyrrolo[3,4-c]pyrazole-5-carbonyl]-4-{[(2S)-1 1 1-trifluoropropan-2-yl]oxy}benzonitrile]
1000 to 10000 | Cc1ncc(F)cc1-n1cc2c(n1)CN(C(=O)c1cc(C#N)ccc1O[C@@H](C)C(F)(F)F)C2 [Example 354, 3-[2-(5-Fluoro-2-methylpyridin-3-yl)-2H 4H 5H 6H-pyrrolo[3,4-c]pyrazole-5-carbonyl]-4-{[(2S)-1 1 1-trifluoropropan-2-yl]oxy}benzonitrile]
< 100 | Cc1cc(-n2cc3c(n2)CN(C(=O)c2cc(S(C)(=O)=O)ccc2O[C@@H](C)C(F)(F)F)C3)ccn1 [Example 356, 4-[5-(5-Methanesulfonyl-2-{[(2S)-1 1 1-trifluoropropan-2-yl]oxy}benzoyl)-2H 4H 5H 6H-pyrrolo[3,4-c]pyrazol-2-yl]-2-methylpyridine]
< 100 | Cc1ccnc(-n2cc3c(n2)CN(C(=O)c2cc(S(C)(=O)=O)ccc2O[C@@H](C)C(F)(F)F)C3)c1 [Example 357, 2-[5-(5-Methanesulfonyl-2-{[(2S)-1 1 1-trifluoropropan-2-yl]oxy}benzoyl)-2H 4H 5H 6H-pyrrolo[3,4-c]pyrazol-2-yl]-4-methylpyridine]
< 100 | Cc1cc(-n2cc3c(n2)CN(C(=O)c2cc(S(C)(=O)=O)ccc2O[C@@H](C)C(F)(F)F)C3)ncc1F [Example 359, 5-Fluoro-2-[5-(5-methanesulfonyl-2-{[(2S)-1 1 1-trifluoropropan-2-yl]oxy}benzoyl)-2H 4H 5H 6H-pyrrolo[3,4-c]pyrazol-2-yl]-4-methylpyridine]
< 100 | Cc1cccc(-n2cc3c(n2)CN(C(=O)c2cc(S(C)(=O)=O)ccc2O[C@@H](C)C(F)(F)F)C3)n1 [Example 360, 2-[5-(5-Methanesulfonyl-2-{[(2S)-1 1 1-trifluoropropan-2-yl]oxy}benzoyl)-2H 4H 5H 6H-pyrrolo[3,4-c]pyrazol-2-yl]-6-methylpyridine]
100 to 1000 | Cc1cc(F)cnc1-n1cc2c(n1)CN(C(=O)c1cc(S(C)(=O)=O)ccc1O[C@@H](C)C(F)(F)F)C2 [Example 361, 5-Fluoro-2-[5-(5-methanesulfonyl-2-{[(2S)-1 1 1-trifluoropropan-2-yl]oxy}benzoyl)-2H 4H 5H 6H-pyrrolo[3,4-c]pyrazol-2-yl]-3-methylpyridine]
< 100 | Cc1nc(-n2cc3c(n2)CN(C(=O)c2cc(S(C)(=O)=O)ccc2O[C@@H](C)C(F)(F)F)C3)ccc1F [Example 362, 3-Fluoro-6-[5-(5-methanesulfonyl-2-{[(2S)-1 1 1-trifluoropropan-2-yl]oxy}benzoyl)-2H 4H 5H 6H-pyrrolo[3,4-c]pyrazol-2-yl]-2-methylpyridine]
< 100 | CS(=O)(=O)c1ccc(N2CCCCC2)c(C(=O)N2Cc3cn(-c4ccc(F)cc4)nc3C2)c1 [Example 363, 1-{2-[2-(4-Fluorophenyl)-2H 4H 5H 6H-pyrrolo[3,4-c]pyrazole-5-carbonyl]-4-methanesulfonylphenyl}piperidine]
< 100 | COc1cc(-n2cc3c(n2)CN(C(=O)c2cc(C#N)ccc2O[C@@H](C)C(F)(F)F)C3)ccn1 [Example 364, 3-[2-(2-Methoxypyridin-4-yl)-2H 4H 5H 6H-pyrrolo[3,4-c]pyrazole-5-carbonyl]-4-{[(2S)-1 1 1-trifluoropropan-2-yl]oxy}benzonitrile]
1000 to 10000 | COc1cc(-n2ncc3c2CN(C(=O)c2cc(C#N)ccc2O[C@@H](C)C(F)(F)F)C3)ccn1 [Example 365, 3-[1-(2-Methoxypyridin-4-yl)-1H 4H 5H 6H-pyrrolo[3,4-c]pyrazole-5-carbonyl]-4-{[(2S)-1 1 1-trifluoropropan-2-yl]oxy}benzonitrile]
1000 to 10000 | COc1cc(-n2ncc3c2CN(C(=O)c2cc(C#N)ccc2OC(C)C)C3)ccn1 [Example 366, 3-[1-(2-Methoxypyridin-4-yl)-1H 4H 5H 6H-pyrrolo[3,4-c]pyrazole-5-carbonyl]-4-(propan-2-yloxy)benzonitrile]
< 100 | CCc1cc(-n2cc3c(n2)CN(C(=O)c2cc(C#N)ccc2O[C@@H](C)C(F)(F)F)C3)ccn1 [Example 367, 3-[2-(2-Ethylpyridin-4-yl)-2H 4H 5H 6H-pyrrolo[3,4-c]pyrazole-5-carbonyl]-4-{[(2S)-1 1 1-trifluoropropan-2-yl]oxy}benzonitrile]
< 100 | CCc1cc(-n2cc3c(n2)CN(C(=O)c2cc(C#N)ccc2OC(C)C)C3)ccn1 [Example 368, 3-[2-(2-Ethylpyridin-4-yl)-2H 4H 5H 6H-pyrrolo[3,4-c]pyrazole-5-carbonyl]-4-(propan-2-yloxy)benzonitrile]
< 100 | COc1cc(-n2cc3c(n2)CN(C(=O)c2cc(C#N)ccc2OC(C)C)C3)ccn1 [Example 369, 3-[2-(2-Methoxypyridin-4-yl)-2H 4H 5H 6H-pyrrolo[3,4-c]pyrazole-5-carbonyl]-4-(propan-2-yloxy)benzonitrile]
100 to 1000 | CCOc1cc(-n2cc3c(n2)CN(C(=O)c2cc(C#N)ccc2OC(C)C)C3)ccn1 [Example 370, 3-[2-(2-Ethoxypyridin-4-yl)-2H 4H 5H 6H-pyrrolo[3,4-c]pyrazole-5-carbonyl]-4-(propan-2-yloxy)benzonitrile]
